SMILES strings stand for the structures.

The values that follow come from patent publication EP0703904B1, “PYRIMIDINE CYANOGUANIDINES AS K-CHANNEL BLOCKERS” (priority 1993, dated 1994).

Test [1] has as its system female Harlan Sprague-Dawley rats. The test is described as follows: Diuretic screen in rats: urinary Na^+ excretion. The class given is in vivo. How it is done:
The diuretic activity was determined in female Harlan Sprague-Dawley rats weighing 200 to 230 grams that were fasted 15 hours overnight, and then were deprived of both food and water for an additional hour prior to dosing. […] It approximates the area under the dose response curve. The vehicle was 20% dimethylacetamide (DMA; v/v) in a pH 7.4 phosphate buffer (0.58% N2HPO4 and 0.13% NaH2PO4·H2O). Sufficient drug was suspended in 1 to 2 ml of this vehicle to deliver doses of 1.0 to 30 mg/kg in a volume of 0.5 ml (2-4 rats/dose). At least 2 vehicle control rats, and, for most tests, 2 standard diuretic treated rats were included in each experiment. Standards used as comparators included the K^+ retaining diuretic amiloride and tie K^+ wasting diuretics furosemide, hydrochlorothiazide and metolazone.
Following their IP doses, the rats' urinary bladders were gently compressed to eliminate all pretreatment urine, and two identically treated rats were placed in a stainless steel metabolism cage equipped with a graduated test tube to collect voided urine. At 2 and 5 hours post treatment, the rats' bladders were again compressed, the volume of urine excreted by the pair of rats was recorded, and aliquots of urine were retained for analysis of Na^+ and K^+ concentrations with a NOVA-13 selective ion analyzer. Following the 5 hour urine collection, the rats were returned to their stock cages, and at least 1 week of recovery was allowed between a maximum of 3 diuretic tests.
The electrolyte concentrations detected in these urine samples were manually mulliplied by their respective volumes to determine total milliequivalent (mEq) excretion of Na^+ and K^+ per pair of rats, and the results obtained with multiple racks per drug treatment were averaged. Increases in urinary Na^+ excretion of 50% or more above the pooled control tests were regarded as reflecting activity.

The target in the next test is RMA K^+ Channel (Oryctolagus cuniculus, UniProt P82451+Q8WMQ7). The test is described as follows: Inhibition of pinacidil-induced relaxation of norepinephrine-contracted isolated rabbit mesenteric artery (RMA) rings. The class given is cell-based. Particulars: inhibitor 5 µM; pinacidil 1 µM; norepinephrine 5 µM contracted rings; mean ± sem; relaxation at 15 minutes versus control; number of rings in brackets; read-out: RMA K^+ Channel Antagonism % I at 5 µM. How it is done: The results for potassium channel blocking were obtained by using isolated rabbit mesenteric artery (RMA) procedures. Norepinephrine (5 µM) was used to contract the RMA rings twice, with an hour separating the two contractions. During this hour the tissues equilibrated in physiological salt solution at a resting tension of 1 gram. Upon the plateau of the second contraction 1 µM pinacidil was added to all tissues and the resulting relaxation time course was studied for thirty minutes. […] By studying the ability of the test compounds to inhibit this pinacidil-induced relaxation, the degree of potassium antagonism could be determined. The compounds were applied to the tissues for one hour between the two contractions and the pinacidil-induced relaxation was studied in the continuing presence of the compounds. Thus, the total time of pretreatment with the test compound was 75 minutes before the addition of pinacidil. […] The compounds were tested at 5 µM. The inhibitory effect of a compound was measured as percent inhibition of pinacidil relaxation at 15 minutes in comparison with the control.
Sequence of RMA K^+ Channel (P82451 whole entry): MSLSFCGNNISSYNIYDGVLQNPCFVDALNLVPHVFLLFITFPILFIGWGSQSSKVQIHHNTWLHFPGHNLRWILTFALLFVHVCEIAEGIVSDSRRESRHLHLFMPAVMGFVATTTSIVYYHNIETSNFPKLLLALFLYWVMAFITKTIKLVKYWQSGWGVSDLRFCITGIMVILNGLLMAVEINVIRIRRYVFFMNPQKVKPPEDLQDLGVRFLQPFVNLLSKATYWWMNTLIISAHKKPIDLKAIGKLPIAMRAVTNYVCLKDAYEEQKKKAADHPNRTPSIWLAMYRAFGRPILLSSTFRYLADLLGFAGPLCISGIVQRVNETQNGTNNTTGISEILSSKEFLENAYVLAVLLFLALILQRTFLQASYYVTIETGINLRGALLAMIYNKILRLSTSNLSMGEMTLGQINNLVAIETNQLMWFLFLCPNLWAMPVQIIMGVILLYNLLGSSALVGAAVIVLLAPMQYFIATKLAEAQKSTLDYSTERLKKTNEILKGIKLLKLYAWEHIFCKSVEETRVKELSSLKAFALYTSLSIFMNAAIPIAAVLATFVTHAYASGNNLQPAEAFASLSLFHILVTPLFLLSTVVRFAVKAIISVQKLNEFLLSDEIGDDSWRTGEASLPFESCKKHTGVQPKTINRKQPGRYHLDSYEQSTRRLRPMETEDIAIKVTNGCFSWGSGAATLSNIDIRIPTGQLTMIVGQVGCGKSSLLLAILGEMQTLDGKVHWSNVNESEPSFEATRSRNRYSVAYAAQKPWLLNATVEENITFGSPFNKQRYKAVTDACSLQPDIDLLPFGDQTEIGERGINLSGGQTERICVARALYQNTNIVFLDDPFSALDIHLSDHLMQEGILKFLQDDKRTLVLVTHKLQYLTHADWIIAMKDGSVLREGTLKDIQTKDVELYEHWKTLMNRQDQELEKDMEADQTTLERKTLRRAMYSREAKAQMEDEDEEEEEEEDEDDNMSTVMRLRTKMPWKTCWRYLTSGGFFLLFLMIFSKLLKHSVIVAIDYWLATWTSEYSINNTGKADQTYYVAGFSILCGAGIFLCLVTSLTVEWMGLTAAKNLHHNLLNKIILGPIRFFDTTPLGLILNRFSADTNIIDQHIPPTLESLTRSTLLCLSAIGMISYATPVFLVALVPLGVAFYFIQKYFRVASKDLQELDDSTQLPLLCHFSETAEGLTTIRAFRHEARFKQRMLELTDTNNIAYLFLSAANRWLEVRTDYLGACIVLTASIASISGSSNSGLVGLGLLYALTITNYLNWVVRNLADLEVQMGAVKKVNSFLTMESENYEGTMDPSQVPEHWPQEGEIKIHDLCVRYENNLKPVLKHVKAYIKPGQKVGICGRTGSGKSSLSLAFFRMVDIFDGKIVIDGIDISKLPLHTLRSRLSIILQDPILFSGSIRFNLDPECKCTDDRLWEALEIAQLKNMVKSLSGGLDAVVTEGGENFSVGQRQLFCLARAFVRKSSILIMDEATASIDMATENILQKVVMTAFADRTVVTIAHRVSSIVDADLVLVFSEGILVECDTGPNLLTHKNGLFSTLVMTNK
Sequence of RMA K^+ Channel (Q8WMQ7 1-424): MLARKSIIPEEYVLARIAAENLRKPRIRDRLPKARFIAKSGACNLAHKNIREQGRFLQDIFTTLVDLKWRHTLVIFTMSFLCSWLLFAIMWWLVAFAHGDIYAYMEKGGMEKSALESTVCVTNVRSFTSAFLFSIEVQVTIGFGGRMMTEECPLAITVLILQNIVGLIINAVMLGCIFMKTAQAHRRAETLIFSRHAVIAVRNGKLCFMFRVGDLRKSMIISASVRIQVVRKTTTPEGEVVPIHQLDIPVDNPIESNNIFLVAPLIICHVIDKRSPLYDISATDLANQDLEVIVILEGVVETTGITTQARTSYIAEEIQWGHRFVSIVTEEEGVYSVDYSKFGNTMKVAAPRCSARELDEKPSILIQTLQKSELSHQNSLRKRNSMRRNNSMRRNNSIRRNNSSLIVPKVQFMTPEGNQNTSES

Where [2] appears, read: net increase above control in urinary Na^+ excretion over 5 hours divided by total of the three drug doses, administered IP.

Take `N#CN=C(NCC(c1ccccc1)c1ccccc1)Nc1cccnc1` [Control]: in test [1] (setting [2]), the “5 h Net Natriuretic Efficacy (µEq Na^+/mg/kg)” value (from here on “5 h Net Natriuretic Efficacy”) is 0.0 µEq Na^+/mg/kg. On RMA K^+ Channel, the inhibition at 5 µM is 0%.

`C[C@@H](NC(=NC#N)Nc1cncnc1)c1ccccc1` [Example 1, (R)-N"-Cyano-N-(5-pyrimidyl)-N'-(1-phenyl)ethylguanidine]: the “5 h Net Natriuretic Efficacy” value in test [1] (setting [2]) came out at 13.2 µEq Na^+/mg/kg. For the same compound, the inhibition at 5 µM at RMA K^+ Channel was determined as 81.7 ± 4.4%.

For the compound `CC(N/C(=N\C#N)Nc1ccncc1)C(C)(C)C` (centres unmarked) [Pinacidil], the “5 h Net Natriuretic Efficacy” value in test [1] (antidiuresis seen with 5 mg/kg oral dosage (footnote d)) is -60^d µEq Na^+/mg/kg. Further, the inhibition at 5 µM at RMA K^+ Channel was 0%.

As to `N#CN=C(Nc1cnc(N)nc1)NC1(c2ccccc2)CCC1` [Example 2, N-(2-Amiro-5-pyrimidyl)N"-cyano-N'-(1-phenyl)cyclobutylguanidine], in test [1] (setting [2]), the “5 h Net Natriuretic Efficacy” value is given as 43 µEq Na^+/mg/kg. Besides, the inhibition at 5 µM at RMA K^+ Channel stood at 97%.
